US20200207759A1, “NEW PROPANAMINE DERIVATIVES FOR TREATING PAIN AND PAIN RELATED CONDITIONS” (ESTEVE PHARMACEUTICALS, S.A., priority 2017, published 2020)

How the values were obtained:
[1] = biological target: Human norepinephrine transporter (NET) (Homo sapiens, UniProt P23975); assay: Binding assay to human norepinephrine transporter (NET), [3H]-Nisoxetin; settings: human NET enriched membranes, 5 nM [3H]-Nisoxetin; read-out: Ki (nM) NET Hum
Description: Binding Assay to Human Norepinephrine Transporter (NET).
Human norepinephrine transporter (NET) enriched membranes (5 μg) were incubated with 5 nM of radiolabeled [3H]-Nisoxetin in assay buffer containing 50 mM Tris-HCl, 120 mM NaCl, 5 mM KCl, pH 7.4.
NSB (non specific binding) was measured by adding 1 μM. After 60 min incubation at 4° C., binding reaction was terminated by filtering through Multiscreen GF/C (Millipore) presoaked in 0.5% polyethyleneimine in Vacuum Manifold Station, followed by 3 washes with ice-cold filtration buffer containing 50 mM Tris-HCl, 0.9% NaCl, pH 7.4. Filter plates were dried at 60° C. for 1 hour and 30 μl of scintillation cocktail were added to each well before radioactivity reading.

[2] = biological target: Human α2δ-1 subunit of Cav2.2 calcium channel (Homo sapiens, UniProt P54289); assay: Binding assay to human α2δ-1 subunit of Cav2.2 calcium channel, [3H]-Gabapentin; settings: human α2δ-1 enriched membranes, 15 nM [3H]-Gabapentin; read-out: Ki (nM) alpha2delta Hum
Description: Binding Assay to Human α2δ-1 Subunit of Cav2.2 Calcium Channel.
Human α2δ-1 enriched membranes (2.5 μg) were incubated with 15 nM of radiolabeled [3H]-Gabapentin in assay buffer containing Hepes-KOH 10 mM, pH 7.4.
NSB (non specific binding) was measured by adding 10 μM pregabalin. After 60 min incubation at 27° C., binding reaction was terminated by filtering through Multiscreen GF/C (Millipore) presoaked in 0.5% polyethyleneimine in Vacuum Manifold Station, followed by 3 washes with ice-cold filtration buffer containing 50 mM Tris-HCl, pH 7.4.
Filter plates were dried at 60° C. for 1 hour and 30 μl of scintillation cocktail were added to each well before radioactivity reading.
Readings were performed in a Trilux 1450 Microbeta radioactive counter (Perkin Elmer).

Chain of Human α2δ-1 subunit of Cav2.2 calcium channel (P54289 25-1103): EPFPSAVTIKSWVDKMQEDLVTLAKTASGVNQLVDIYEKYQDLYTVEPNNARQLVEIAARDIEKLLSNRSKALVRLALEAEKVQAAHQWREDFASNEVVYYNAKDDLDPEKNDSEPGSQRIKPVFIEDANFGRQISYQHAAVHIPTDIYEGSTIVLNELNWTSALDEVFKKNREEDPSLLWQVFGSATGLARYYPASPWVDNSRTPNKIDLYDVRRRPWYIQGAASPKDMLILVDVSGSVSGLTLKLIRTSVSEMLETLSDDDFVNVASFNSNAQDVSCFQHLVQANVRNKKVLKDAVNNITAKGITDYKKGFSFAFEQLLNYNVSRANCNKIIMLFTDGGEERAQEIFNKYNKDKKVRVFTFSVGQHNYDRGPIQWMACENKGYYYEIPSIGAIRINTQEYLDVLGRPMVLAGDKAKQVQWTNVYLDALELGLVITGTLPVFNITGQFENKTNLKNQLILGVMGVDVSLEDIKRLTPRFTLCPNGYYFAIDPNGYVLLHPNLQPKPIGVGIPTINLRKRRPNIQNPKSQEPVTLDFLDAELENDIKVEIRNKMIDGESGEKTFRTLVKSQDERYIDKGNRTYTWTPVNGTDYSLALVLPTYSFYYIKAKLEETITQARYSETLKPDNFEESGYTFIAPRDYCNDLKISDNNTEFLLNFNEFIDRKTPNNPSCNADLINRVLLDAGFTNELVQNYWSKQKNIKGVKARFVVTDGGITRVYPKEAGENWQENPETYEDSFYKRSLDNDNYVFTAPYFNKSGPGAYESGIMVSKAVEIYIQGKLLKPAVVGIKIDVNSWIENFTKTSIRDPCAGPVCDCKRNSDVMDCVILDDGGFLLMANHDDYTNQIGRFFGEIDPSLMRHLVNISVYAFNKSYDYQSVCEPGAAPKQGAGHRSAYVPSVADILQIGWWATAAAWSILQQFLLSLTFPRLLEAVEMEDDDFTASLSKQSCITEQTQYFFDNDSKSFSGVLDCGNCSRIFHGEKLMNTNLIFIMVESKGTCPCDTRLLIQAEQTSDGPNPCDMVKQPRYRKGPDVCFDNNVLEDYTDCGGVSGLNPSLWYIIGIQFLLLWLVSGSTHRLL
Chain of Human norepinephrine transporter (NET) (P23975 whole entry): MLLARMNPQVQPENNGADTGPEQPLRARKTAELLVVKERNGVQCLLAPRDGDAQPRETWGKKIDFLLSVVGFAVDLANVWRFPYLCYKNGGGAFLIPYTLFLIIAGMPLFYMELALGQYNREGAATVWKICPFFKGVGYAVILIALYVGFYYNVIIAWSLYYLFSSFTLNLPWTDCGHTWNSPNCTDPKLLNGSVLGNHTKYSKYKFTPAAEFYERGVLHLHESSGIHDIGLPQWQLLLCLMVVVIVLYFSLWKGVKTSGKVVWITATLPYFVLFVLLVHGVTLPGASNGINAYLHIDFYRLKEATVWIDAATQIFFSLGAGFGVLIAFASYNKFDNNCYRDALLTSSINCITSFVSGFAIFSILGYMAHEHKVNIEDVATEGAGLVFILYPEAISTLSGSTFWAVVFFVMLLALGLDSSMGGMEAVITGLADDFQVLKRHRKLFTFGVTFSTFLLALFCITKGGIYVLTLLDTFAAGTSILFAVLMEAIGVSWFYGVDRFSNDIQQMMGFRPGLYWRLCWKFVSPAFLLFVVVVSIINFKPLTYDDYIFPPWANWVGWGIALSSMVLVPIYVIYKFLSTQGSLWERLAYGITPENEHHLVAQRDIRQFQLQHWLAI

| SMILES | Ki [1] | Ki [2] |
| --- | --- | --- |
| CNCC[C@H](c1cccs1)N1CCc2ncc(F)cc21 [Example 26, (R)-3-(6-Fluoro-2,3-dihydro-1H-pyrrolo[3,2-b]pyridin-1-yl)-N-methyl-3-(thiophen-2-yl)propan-1-amine] | > 1000 nM | 100 to 500 nM |
| CNCC[C@@H](c1ccsc1)N1CCc2ncc(C)cc21 [Example 102, (S)—N-methyl-3-(6-methyl-2,3-dihydro-1H-pyrrolo[3,2-b]pyridin-1-yl)-3-(thiophen-3-yl)propan-1-amine] | > 1000 nM | 500 to 3000 nM |
| CNCCC(c1cccs1)N1CC(C)(C)c2c(C#N)cccc21 (stereo not drawn) [Example 100, 3,3-Dimethyl-1-(3-(methylamino)-1-(thiophen-2-yl)propyl)indoline-4-carbonitrile] | > 1000 nM | < 100 nM |
| CNCC[C@H](c1cc(C)sc1C)N1CCc2ncccc21 [Example 42, (R)-3-(2,3-Dihydro-1H-pyrrolo[3,2-b]pyridin-1-yl)-3-(2,5-dimethylthiophen-3-yl)-N-methylpropan-1-amine] | > 1000 nM | ≥ 3000 nM |
| CNCC[C@H](c1cccs1)N1CC(C)(C)c2nc(C)ccc21 [Example 34, (R)-N-methyl-3-(thiophen-2-yl)-3-(3,3,5-trimethyl-2,3-dihydro-1H-pyrrolo[3,2-b]pyridin-1-yl)propan-1-amine] | > 1000 nM | < 100 nM |
| CNCC[C@@H](c1cccs1)N1CCc2c(C#N)cccc21 [Example 112, (S)-1-(3-(methylamino)-1-(thiophen-2-yl)propyl)indoline-4-carbonitrile] | > 1000 nM | 100 to 500 nM |
| CNCCC(c1cccs1)N1CC(C)(C)c2ncc(C#N)cc21 (stereo not drawn) [Example 97, 3,3-Dimethyl-1-(3-(methylamino)-1-(thiophen-2-yl)propyl)-2,3-dihydro-1H-pyrrolo[3,2-b]pyridine-6-carbonitrile] | > 1000 nM | < 100 nM |
| CNCC[C@@H](c1cccs1)N1CC(C)(C)c2ncc(Cl)cc21 [Example 109, (S)-3-(6-Chloro-3,3-dimethyl-2,3-dihydro-1H-pyrrolo[3,2-b]pyridin-1-yl)-N-methyl-3-(thiophen-2-yl)propan-1-amine] | > 1000 nM | ≥ 3000 nM |
| CNCC[C@H](c1ccsc1)N1CC(C)(C)c2nc(C(F)(F)F)ccc21 [Example 108, (R)-3-(3,3-dimethyl-5-(trifluoromethyl)-2,3-dihydro-1H-pyrrolo[3,2-b]pyridin-1-yl)-N-methyl-3-(thiophen-3-yl)propan-1-amine] | > 1000 nM | 100 to 500 nM |
| CNCC[C@H](c1cccs1)N1CCc2nc(C(C)C)ccc21 [Example 48, (R)-3-(5-Isopropyl-2,3-dihydro-1H-pyrrolo[3,2-b]pyridin-1-yl)-N-methyl-3-(thiophen-2-yl)propan-1-amine] | > 1000 nM | 500 to 3000 nM |
| CNCC[C@H](c1ccsc1)N1CC(C)(C)c2ncccc21 [Example 24, (R)-3-(3,3-Dimethyl-2,3-dihydro-1H-pyrrolo[3,2-b]pyridin-1-yl)-N-methyl-3-(thiophen-3-yl)propan-1-amine] | > 1000 nM | 100 to 500 nM |
| CNCC[C@H](c1ccsc1)N1CCc2nc(C(C)C)ccc21 [Example 46, (R)-3-(5-Isopropyl-2,3-dihydro-1H-pyrrolo[3,2-b]pyridin-1-yl)-N-methyl-3-(thiophen-3-yl)propan-1-amine] | > 1000 nM | 500 to 3000 nM |
| CNCCC(c1cccs1)N1CC(C)(C)c2ccc(C#N)cc21 (stereo not drawn) [Example 92, 3,3-Dimethyl-1-(3-(methylamino)-1-(thiophen-2-yl)propyl)indoline-6-carbonitrile] | > 1000 nM | 100 to 500 nM |

More lines, now with the values ahead:

| Ki [1] | Ki [2] | SMILES |
| --- | --- | --- |
| > 1000 nM | 100 to 500 nM | CNCC[C@H](c1ccsc1)N1CC(C)(C)c2nc(C)ccc21 [Example 58, (R)-N-methyl-3-(thiophen-3-yl)-3-(3,3,5-trimethyl-2,3-dihydro-1H-pyrrolo[3,2-b]pyridin-1-yl)propan-1-amine] |
| > 1000 nM | ≥ 3000 nM | CNCC[C@@H](c1cc(C)sc1C)N1CCc2ncccc21 [Example 43, (S)-3-(2,3-Dihydro-1H-pyrrolo[3,2-b]pyridin-1-yl)-3-(2,5-dimethylthiophen-3-yl)-N-methylpropan-1-amine] |
| 100 to 500 nM | 100 to 500 nM | CCc1cnc2c(c1)N([C@H](CCNC)c1cccs1)CC2 [Example 32, (R)-3-(6-Ethyl-2,3-dihydro-1H-pyrrolo[3,2-b]pyridin-1-yl)-N-methyl-3-(thiophen-2-yl)propan-1-amine] |
| < 100 nM | ≥ 3000 nM | CNCCC(c1ccsc1)N1CCc2ccccc21 (racemic) [Example 78, 3-(Indolin-1-yl)-N-methyl-3-(thiophen-3-yl)propan-1-amine] |
| > 1000 nM | 500 to 3000 nM | CNCCC(c1cccs1)N1CCc2ccncc21 (stereo not drawn) [Example 2, 3-(2,3-Dihydro-1H-pyrrolo[2,3-c]pyridin-1-yl)-N-methyl-3-(thiophen-2-yl)propan-1-amine] |
| > 1000 nM | < 100 nM | CNCC[C@H](c1ccsc1)N1CC(C)(C)c2nc(C)c(F)cc21 [Example 90, (R)-3-(6-Fluoro-3,3,5-trimethyl-2,3-dihydro-1H-pyrrolo[3,2-b]pyridin-1-yl)-N-methyl-3-(thiophen-3-yl)propan-1-amine] |
| 100 to 500 nM | ≥ 3000 nM | CNCCC(c1cccs1)N1CCCc2ccccc21 (stereo not drawn) [Example 4, 3-(3,4-Dihydroquinolin-1(2H)-yl)-N-methyl-3-(thiophen-2-yl)propan-1-amine] |
| 500 to 1000 nM | ≥ 3000 nM | CNCC[C@@H](c1cccs1)N1CCc2ncc(OC)cc21 [Example 31, (S)-3-(6-Methoxy-2,3-dihydro-1H-pyrrolo[3,2-b]pyridin-1-yl)-N-methyl-3-(thiophen-2-yl)propan-1-amine] |
| 100 to 500 nM | 500 to 3000 nM | CNCC[C@@H](c1cccs1)N1CC(C)(C)c2ncccc21 [Example 21, (S)-3-(3,3-dimethyl-2,3-dihydro-1H-pyrrolo[3,2-b]pyridin-1-yl)-N-methyl-3-(thiophen-2-yl)propan-1-amine] |
| 500 to 1000 nM | 100 to 500 nM | CNCC[C@@H](c1ccsc1)N1CCc2ncc(F)cc21 [Example 29, (S)-3-(6-Fluoro-2,3-dihydro-1H-pyrrolo[3,2-b]pyridin-1-yl)-N-methyl-3-(thiophen-3-yl)propan-1-amine] |
| 100 to 500 nM | < 100 nM | CNCCC(c1ccsc1)N1CC(C)(C)c2nc(C)c(F)cc21 (stereo not drawn) [Example 71, 3-(6-Fluoro-3,3,5-trimethyl-2,3-dihydro-1H-pyrrolo[3,2-b]pyridin-1-yl)-N-methyl-3-(thiophen-3-yl)propan-1-amine] |
| 500 to 1000 nM | 500 to 3000 nM | CNCC[C@@H](c1cccc(F)c1)N1CCc2ncccc21 [Example 82, (S)-3-(2,3-Dihydro-1H-pyrrolo[3,2-b]pyridin-1-yl)-3-(3-fluorophenyl)-N-methylpropan-1-amine] |
| 100 to 500 nM | 500 to 3000 nM | CNCC[C@@H](c1ccsc1)N1CC(C)(C)c2ncccc21 [Example 25, (S)-3-(3,3-Dimethyl-2,3-dihydro-1H-pyrrolo[3,2-b]pyridin-1-yl)-N-methyl-3-(thiophen-3-yl)propan-1-amine] |
| 500 to 1000 nM | 100 to 500 nM | CNCCC(c1ccsc1)N1CCc2ncc(C)cc21 (stereo not drawn) [Example 14, N-methyl-3-(6-methyl-2,3-dihydro-1H-pyrrolo[3,2-b]pyridin-1-yl)-3-(thiophen-3-yl)propan-1-amine] |
